Test results: ChEMBL document CHEMBL1275476, “Emergence of macrolide resistance gene mph(B) in Streptococcus uberis and cooperative effects with rdmC-like gene” (2008)
In brackets after ≈: the same amount, converted by molar mass.

Columns and labels:
Assay type in all cases: functional
Escherichia coli [1] = assay: Antimicrobial activity against Escherichia coli AG100A harboring pAT392 containing mph(B) gene by broth microdilution method
Streptococcus uberis [2] = assay: Antimicrobial activity against Streptococcus uberis UCN61 by broth microdilution method
Enterococcus faecalis [3] = assay: Antimicrobial activity against Enterococcus faecalis JH2-2 harboring empty vector by broth microdilution method
Enterococcus faecalis [4] = assay: Antimicrobial activity against Enterococcus faecalis JH2-2 harboring pAT392 containing mph(B) gene by broth microdilution method
Streptococcus uberis [5] = assay: Antimicrobial activity against Streptococcus uberis UCN60 expressing mph(B) and rdmC-like genes by broth microdilution method
Staphylococcus aureus [6] = assay: Antimicrobial activity against Staphylococcus aureus RN4220 harboring pAT392 containing rdmC-like gene by broth microdilution method
Enterococcus faecalis [7] = assay: Antimicrobial activity against Enterococcus faecalis JH2-2 harboring pAT392 containing rdmC-like gene by broth microdilution method
Escherichia coli [8] = assay: Antimicrobial activity against Escherichia coli AG100A harboring pAT392 containing rdmC-like gene by broth microdilution method
Staphylococcus aureus [9] = assay: Antimicrobial activity against Staphylococcus aureus RN4220 harboring pAT392 containing mph(B) and rdmC-like genes by broth microdilution method
Staphylococcus aureus [10] = assay: Antimicrobial activity against Staphylococcus aureus RN4220 harboring empty vector by broth microdilution method
Escherichia coli [11] = assay: Antimicrobial activity against Escherichia coli AG100A harboring empty vector by broth microdilution method
Escherichia coli [12] = assay: Antimicrobial activity against Escherichia coli AG100A harboring pAT392 containing mph(B) and rdmC-like genes by broth microdilution method
Enterococcus faecalis [13] = assay: Antimicrobial activity against Enterococcus faecalis JH2-2 harboring pAT392 containing mph(B) and rdmC-like gene by broth microdilution method
Staphylococcus aureus [14] = assay: Antimicrobial activity against Staphylococcus aureus RN4220 harboring pAT392 containing mph(B) gene by broth microdilution method

Row | Compound | MIC (Escherichia coli [1]) [µg/mL] | MIC (Streptococcus uberis [2]) [µg/mL] | MIC (Enterococcus faecalis [3]) [µg/mL] | MIC (Enterococcus faecalis [4]) [µg/mL] | MIC (Streptococcus uberis [5]) [µg/mL] | MIC (Staphylococcus aureus [6]) [µg/mL] | MIC (Enterococcus faecalis [7]) [µg/mL] | MIC (Escherichia coli [8]) [µg/mL] | MIC (Staphylococcus aureus [9]) [µg/mL] | MIC (Staphylococcus aureus [10]) [µg/mL] | MIC (Escherichia coli [11]) [µg/mL] | MIC (Escherichia coli [12]) [µg/mL] | MIC (Enterococcus faecalis [13]) [µg/mL] | MIC (Staphylococcus aureus [14]) [µg/mL]
1 | CC[C@H]1OC(=O)[C@H](C)[C@@H](O[C@H]2C[C@@](C)(OC)[C@@H](O)[C@H](C)O2)[C@H](C)[C@@H](O[C@@H]2O[C@H](C)C[C@H](N(C)C)[C@H]2O)[C@](C)(O)C[C@@H](C)C(=O)[C@H](C)[C@@H](O)[C@]1(C)O [ERYTHROMYCIN] | 64 (≈ 87.2 µM) | 0.06 (≈ 0.0818 µM) | 0.25 (≈ 0.341 µM) | 0.25 (≈ 0.341 µM) | 0.06 (≈ 0.0818 µM) | 0.25 (≈ 0.341 µM) | 0.25 (≈ 0.341 µM) | 2 (≈ 2.73 µM) | 0.25 (≈ 0.341 µM) | 0.25 (≈ 0.341 µM) | 2 (≈ 2.73 µM) | 64 (≈ 87.2 µM) | 0.25 (≈ 0.341 µM) | 0.25 (≈ 0.341 µM)
2 | CC[C@H]1OC(=O)[C@H](C)[C@@H](O[C@H]2C[C@@](C)(OC)[C@@H](O)[C@H](C)O2)[C@H](C)[C@@H](O[C@@H]2O[C@H](C)C[C@H](N(C)C)[C@H]2O)[C@](C)(O)C[C@@H](C)CN(C)[C@H](C)[C@@H](O)[C@]1(C)O [AZITHROMYCIN] |  | 0.12 (≈ 0.16 µM) |  |  | 0.12 (≈ 0.16 µM) |  |  |  |  |  |  |  |  | 
3 | SPIRAMYCIN | 400 | 0.5 | 0.5 | 8 | 8 | 4 | 2 | 200 | 32 | 4 | 8 | 1000 | 64 | 8
4 | CO[C@@H]1[C@@H](O[C@@H]2O[C@H](C)[C@@H](O[C@H]3C[C@@](C)(O)[C@@H](OC(=O)CC(C)C)[C@H](C)O3)[C@H](N(C)C)[C@H]2O)[C@@H](CC=O)C[C@@H](C)[C@@H](O)/C=C/C=C/C[C@@H](C)OC(=O)C[C@H]1OC(C)=O [JOSAMYCIN] | 16 (≈ 19.3 µM) | 0.25 (≈ 0.302 µM) | 1 (≈ 1.21 µM) | 1 (≈ 1.21 µM) | 0.25 (≈ 0.302 µM) | 1 (≈ 1.21 µM) | 1 (≈ 1.21 µM) | 8 (≈ 9.66 µM) | 1 (≈ 1.21 µM) | 1 (≈ 1.21 µM) | 8 (≈ 9.66 µM) | 16 (≈ 19.3 µM) | 1 (≈ 1.21 µM) | 1 (≈ 1.21 µM)
5 | CC[C@H]1OC(=O)C[C@@H](O)[C@H](C)[C@@H](O[C@@H]2O[C@H](C)[C@@H](O[C@H]3C[C@@](C)(O)[C@@H](O)[C@H](C)O3)[C@H](N(C)C)[C@H]2O)[C@@H](CC=O)C[C@@H](C)C(=O)/C=C/C(C)=C/[C@@H]1CO[C@@H]1O[C@H](C)[C@@H](O)[C@@H](OC)[C@H]1OC [TYLOSIN] | 128 (≈ 140 µM) | 0.5 (≈ 0.546 µM) | 1 (≈ 1.09 µM) | 1 (≈ 1.09 µM) | 0.5 (≈ 0.546 µM) | 1 (≈ 1.09 µM) | 1 (≈ 1.09 µM) | 16 (≈ 17.5 µM) | 16 (≈ 17.5 µM) | 1 (≈ 1.09 µM) | 16 (≈ 17.5 µM) | > 128 | 16 (≈ 17.5 µM) | 1 (≈ 1.09 µM)
6 | CCC[C@@H]1C[C@@H](C(=O)N[C@@H]([C@H]2O[C@H](SC)[C@H](O)[C@@H](O)[C@H]2O)[C@H](C)Cl)N(C)C1 [CLINDAMYCIN] | 2 (≈ 4.71 µM) | 0.03 (≈ 0.0706 µM) | 2 (≈ 4.71 µM) | 2 (≈ 4.71 µM) | 0.03 (≈ 0.0706 µM) | 0.06 (≈ 0.141 µM) | 2 (≈ 4.71 µM) | 2 (≈ 4.71 µM) | 0.06 (≈ 0.141 µM) | 0.06 (≈ 0.141 µM) | 2 (≈ 4.71 µM) | 2 (≈ 4.71 µM) | 2 (≈ 4.71 µM) | 0.06 (≈ 0.141 µM)
